In patent US4623535A, “Leukotriene antagonists” (SmithKline Beckman Corporation, priority 1984, dated 1986):

Each compound was assayed against T1, leukotriene D4 (LTD4) induced contraction of guinea pig tracheal spiral strips (Cavia porcellus, UniProt Q2NNR5) (assay: Inhibition of leukotriene (LTD4) induced contraction of guinea pig tracheal tissues in vitro). Details: LTD4 agonist, 30 min pretreatment with test compound, meclofenamic acid 1 μM, EC30 relative to carbachol (10 μM), read-out: In Vitro -Log KB (converted).
T1 construct: Guinea pig (adult male albino Hartley strain) tracheal spiral strips; from tissue; host or cells: guinea pig trachea (spiral strips, adult male albino Hartley strain)
T1 sequence (Q2NNR5 1-340): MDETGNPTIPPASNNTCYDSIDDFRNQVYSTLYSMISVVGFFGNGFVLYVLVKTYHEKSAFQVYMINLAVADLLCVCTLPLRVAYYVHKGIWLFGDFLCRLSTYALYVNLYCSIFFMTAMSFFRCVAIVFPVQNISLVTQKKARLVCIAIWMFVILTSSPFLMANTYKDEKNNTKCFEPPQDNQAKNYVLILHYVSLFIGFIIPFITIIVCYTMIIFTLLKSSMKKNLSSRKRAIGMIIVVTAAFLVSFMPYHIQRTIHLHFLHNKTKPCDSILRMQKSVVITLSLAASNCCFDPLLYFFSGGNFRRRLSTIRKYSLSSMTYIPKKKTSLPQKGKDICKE
Assay type: cell-based, guinea pig (adult male albino Hartley strain)
Description: The leukotriene antagonist activity of the compounds of this invention is measured by the ability of the compounds to inhibit the leukotriene induced contraction of guinea pig tracheal tissues in vitro. The following methodology was employed:
In vitro: Guinea pig (adult male albino Hartley strain) tracheal spiral strips of approximate dimensions 2 to 3 mm cross-sectional with and 3.5 cm length were bathed in modified Krebs buffer in jacketed 10 ml tissue bath and continuously aerated with 95% O2 /5% CO2. The tissues were connected via silk suture to force displacement transducers for recording isometric tension. The tissues were equilibrated for 1 hr., pretreated for 15 minutes with meclofenamic acid (1 μM) to remove intrinsic prostaglandin responses, and then pretreated for an additional 30 minutes with either the test compound or vehicle control. A cumulative concentration-response curve for LTD4 on triplicate tissues was generated by successive increases in the bath concentration of the LTD4. In order to minimize intertissue variability, the contractions elicited by LTD4 were standardized as a percentage of the maximum response obtained to a reference agonist, carbachol (10 μM).
Calculations: The averages of the triplicate LTD4 concentration-response curves both in the presence and absence of the test compound were plotted on log graph paper. The concentration of LTD4 needed to elicit 30% of the contraction elicited by carbachol was measured and defined as the EC30. The -log KB value for the test compound was determined by the following equations: [formula]
The antagonist activity of representative compounds of this invention is tabulated below. The -log KB values were calculated from the above test protocol.

Compound | Kb [µM]
CCCCCCCCC#CC(SCCC(=O)O)SCCC(=O)O [R1 = C8 H17, m = 2, n = 2, 4,6-Dithia-5-(1-decynyl)-nonanedioic acid] | 10
CCCCCCCCCCC#CC(SCC(=O)O)SCC(=O)O [R1 = C10 H21, m = 1, n = 1, 3,5-dithia-4-(1-dodecynyl)-heptanedioic acid] | 5.01
CCCCCCCCCCC#CC(SCCCC(=O)O)SCCCC(=O)O [R1 = C10 H21, m = 3, n = 3, 5,7-dithia-6-(1-dodecynyl)-undecanedioic acid] | 3.16

Continued, values first:

Kb [µM] | Compound
0.794 | CCCCCCCCCCC#CC(SCCC(=O)O)SCCC(=O)O [R1 = C10 H21, m = 2, n = 2, 4,6-dithia-5-(1-dodecynyl)-nonanedioic acid]
2 | CCCCCCCCCCCCC#CC(SCCC(=O)O)SCCC(=O)O [R1 = C12 H25, m = 2, n = 2, 4,6-dithia-5-(1-tetradecynyl)-nonanedioic acid]
